Measured values as given in patent publication US4432348A, “Enhancer of anti-tumor effect” (Yamasa Shoyu Kabushiki Kaisha, priority 1980, dated 1984).

Legend:
[1] = background art; cited from earlier work
[2] = test system: EMT-6 tumor; assay: Radiosensitizing effect on EMT-6 experimental tumors in mice (enhancer i.p. after local irradiation); assay type: in vivo, BALB/c-strain female mice; conditions: for Diameter ratio / Mean tumor diameter / Volume ratio: irradiation 1500 rad + i.p. enhancer (3'-dGuo-5'-MP 100 mg/kg; 3'-dAdo-5'-MP 75 mg/kg); for 0.5 to less than 1 of volume ratio excluding cure; Tumor regression rate: slow, share of mice / 1.0 to less than 2.0 of volume ratio excluding cure; regrowth: slow, share of mice / 2.0 or more of volume ratio excluding cure; regrowth: rapid, share of mice / Cure (tumors completely vanished), share of mice / Less than 0.5 of volume ratio excluding cure; Tumor regression rate: rapid, share of mice: 28th day after treatment, irradiation 1500 rad + enhancer (3'-dGuo-5'-MP 100 mg/kg; 3'-dAdo-5'-MP 75 mg/kg); for Mean tumor diameter at the time of irradiation: baseline before irradiation (1500 rad) and i.p. enhancer (3'-dGuo-5'-MP 100 mg/kg, n = 9; 3'-dAdo-5'-MP 75 mg/kg, n = 10); for Radiosensitizing activity: summary statement
Experimental: EMT-6 tumor cells (2×10^5) were inoculated intradermally into the right thighs of BALB/c-strain female mice (8 weeks old, 6 or more mice for each group). When the tumor size reached 6 to 7 mm in diameter after inoculation of the tumor cells, local irradiation with a 32 MeV electron beam was carried out at 1,500 rad under no anesthesia and thereafter 3'-dGuo-5'-MP and 3'-dAdo-5'-MP dissolved in physiological saline solution, was administered intraperitoneally to each mouse in the indicated doses of respective agents. After these treatments, the tumor sizes were measured in tri-dimensional diameters every day or every other day for 28 days, and compared with the control group with respect to the following items: [formula]
The results are shown in Table 1 and Table 2, in which "cure" means that the tumors completely vanished during the observation period.

[3] = Acute toxicity test, intraperitoneal; conditions: mouse, in vivo, ip, ICR mice, male, 8 weeks old, observed for a week
Experimental: The compounds of this invention were administered intraperitoneally to ICR mice (male, 8 weeks old, 10 mice for each group), and the mice were subjected to observation for a week.

[4] = test system: EMT-6 tumor; assay: Enhancement of the effect of anti-tumor agents (araC) on EMT-6 experimental tumors in mice; assay type: in vivo, BALB/c-strain female mice
Experimental: EMT-6 tumor cells (1×10^6) were inoculated intradermally into the right thighs of BALB/c-strain female mice (8 weeks old). On the 11th day after inoculation of the tumor cells and thereafter, 3'-dGuo-5'-MP in physiological saline solutions were administered intrapenitoneally to the mice for 8 consecutive days in the dose of 50 mg/kg. The pharmaceutical agents of the present invention were administered an hour after administration of araC. After commencement of the treatment with pharmaceutical agents, the tumor sizes were measured and compared with the control group.

[5] = test system: adenosinedeaminase; conditions: cited from earlier work
[6] = test system: potentially lethal damage repair (PLDR); assay: Inhibition of potentially lethal damage repair (PLDR)
Excerpt: In view of the fact that the tumor cells with radioresistance under hypoxic conditions are at a quiescent stage, I have investigated the possibility of radiosensitization by inhibiting potentially lethal damage repair (hereinafter referred to as "PLDR"), which is especially marked in quiescent cells.

[7] = test system: adenosinedeaminase; conditions: in bodies; cited from earlier work
[8] = 7 days after commencement of treatment, single agent 50 mg/kg × 8
[9] = 7 days after commencement of treatment, single agent 50 mg/kg × 8 (n = 10)
[10] = 14 days after commencement of treatment, single agent 50 mg/kg × 8
[11] = 14 days after commencement of treatment, single agent 50 mg/kg × 8 (n = 10)
[12] = 21 days after commencement of treatment, single agent 50 mg/kg × 8
[13] = 21 days after commencement of treatment, single agent 50 mg/kg × 8 (n = 10)
[14] = immediately before commencement of treatment, single agent 50 mg/kg × 8 (n = 10)

Compound	Toxicity / side effects [1]	Diameter ratio ([2]; 2 weeks after treatment)	Mean tumor diameter ([2]; 2 weeks after treatment) [mm]	Volume ratio ([2]; 2 weeks after treatment)	Diameter ratio ([2]; 3 weeks after treatment)	Mean tumor diameter ([2]; 3 weeks after treatment) [mm]	Volume ratio ([2]; 3 weeks after treatment)	0.5 to less than 1 of volume ratio excluding cure; Tumor regression rate: slow, share of mice [2] [%]	1.0 to less than 2.0 of volume ratio excluding cure; regrowth: slow, share of mice [2] [%]	2.0 or more of volume ratio excluding cure; regrowth: rapid, share of mice [2] [%]	Cure (tumors completely vanished), share of mice [2] [%]	Less than 0.5 of volume ratio excluding cure; Tumor regression rate: rapid, share of mice [2] [%]	Mean tumor diameter at the time of irradiation [2] [mm]	Radiosensitizing activity [2]	LD50 at 168 h [3] [mg/kg]	Mean tumor diameter ratio [4, 8]	Mean tumor diameter [4, 9] [mm]	Mean tumor diameter ratio [4, 10]	Mean tumor diameter [4, 11] [mm]	Mean tumor diameter ratio [4, 12]	further results
COCC(O)Cn1ccnc1[N+](=O)[O-] (stereo not drawn) [misonidazole]	neurotoxicity																				
Nc1ncnc2c1ncn2[C@@H]1O[C@H](COP(=O)(O)O)C[C@H]1O [3'-dAdo-5'-MP, 3'-deoxyadenosine-5'-monophosphate]		0.66 ± 0.14	4.75 ± 1.06	0.63 ± 0.18	0.49 ± 0.17	3.65 ± 1.24	0.58 ± 0.27	0	20	10	50	20	7.07 ± 0.23	excellent radiosensitizing activities	500						
Nc1ccn([C@@H]2O[C@H](CO)[C@@H](O)[C@@H]2O)c(=O)n1 [araC, 1-β-D-arabinofuranosylcytosine, reference compound]																1.29 ± 0.13	9.63 ± 0.68	1.60 ± 0.20	11.91 ± 1.21	2.08 ± 0.20	Mean tumor diameter [4, 13]: 15.49 ± 1.26 mm; Mean tumor diameter [4, 14]: 7.49 ± 0.63 mm
Nc1nc2c(ncn2[C@@H]2O[C@H](COP(=O)(O)O)C[C@H]2O)c(=O)[nH]1 [3'-dGuo-5'-MP, 3'-deoxyguanosine-5'-monophosphate]		0.93 ± 0.13	6.17 ± 0.90	1.19 ± 0.32	0.90 ± 0.18	5.95 ± 1.22	1.45 ± 0.46	22	56	0	22	0	6.46 ± 0.23	excellent radiosensitizing activities	> 1000	1.30 ± 0.13	9.83 ± 1.07	1.61 ± 0.27	12.10 ± 2.00	2.05 ± 0.32	Mean tumor diameter ratio ([4]; 7 days after commencement, combination araC 50 mg/kg × 8 + 3'-dGuo-5'-MP 50 mg/kg × 8): 1.13 ± 0.15; Mean tumor diameter ([4]; 7 days after commencement, combination araC 50 mg/kg × 8 + 3'-dGuo-5'-MP 50 mg/kg × 8 (1 h after araC)): 8.28 ± 1.11 mm; Mean tumor diameter ratio ([4]; 14 days after commencement, combination araC 50 mg/kg × 8 + 3'-dGuo-5'-MP 50 mg/kg × 8): 1.26 ± 0.51; Mean tumor diameter ([4]; 14 days after commencement, combination araC 50 mg/kg × 8 + 3'-dGuo-5'-MP 50 mg/kg × 8 (1 h after araC)): 9.12 ± 3.67 mm; Mean tumor diameter [4, 13]: 15.40 ± 2.01 mm; Mean tumor diameter ratio ([4]; 21 days after commencement, combination araC 50 mg/kg × 8 + 3'-dGuo-5'-MP 50 mg/kg × 8): 1.67 ± 0.68; Mean tumor diameter ([4]; 21 days after commencement, combination araC 50 mg/kg × 8 + 3'-dGuo-5'-MP 50 mg/kg × 8 (1 h after araC)): 12.07 ± 4.98 mm; Mean tumor diameter ([4]; immediately before commencement of treatment, combination araC 50 mg/kg × 8 + 3'-dGuo-5'-MP 50 mg/kg × 8 (n = 9)): 7.34 ± 0.62 mm; Mean tumor diameter [4, 14]: 7.57 ± 0.64 mm
OC[C@H]1O[C@@H](n2cnc3c2NC=NC[C@H]3O)C[C@@H]1O [2'-deoxycoformycin]	may cause damage to the immune systems																				Adenosinedeaminase inhibition [5]: inhibitor against adenosinedeaminase
Nc1ncnc2c1ncn2[C@@H]1O[C@H](CO)C[C@H]1O [3'-dAdo, 3'-deoxyadenosine]	various side effects													excellent radiosensitizing activities							PLDR-inhibiting ability [6]: confirmed to have a PLDR-inhibiting ability; PLDR-inhibiting ability in combination with 2'-deoxycoformycin ([6]; in combination with 2'-deoxycoformycin): can be strengthened and prolonged; Inactivation by adenosinedeaminase [7]: readily inactivated by adenosinedeaminase
